# “And” between values parts separate entries of the source, which are not always exact repeats. Equal values may be shown once.
# How the values were obtained:
# Type in all cases: biochemical
# thrombin = biological target: T1, thrombin (Homo sapiens, UniProt P00734); test: Target specificity profiling: thrombin; conditions: replicates R1-R3
# T1 construct: […]; purchased Molecular Innovations
# Procedure: (§1) The protease specificity was assessed by testing the inhibition of a series of trypsin-like serine proteases using fluorogenic or chromogenic substrates. Peptide dilutions ranging from 40 μM to 40 nM were prepared for all proteases except thrombin (1 μM to 1 nM). […]. The following fluorogenic substrates were used at a final concentration of 50 μM: Z-Gly-Gly-Arg-AMC (Bachem) for thrombin and trypsin; Z-Phe-Arg-AMC (Bachem) for plasma kallikrein; Boc-Phe-Ser-Arg-AMC (Bachem) for factor XIa; and Boc-Gln-Gly-Arg-AMC (Bachem) for factor XIIa. […]. Reactions were performed in a volume of 150 μl in 96-well plates. A volume of 50 μl of twofold dilutions of macrocycle in assay buffer was pipetted into the wells of the plates. A volume of 50 μl of protease in assay buffer was added to each well and incubated for 15 min. A volume of 50 μl of substrate in assay buffer containing 3% DMSO was added. Fluorescence intensity was measured for 30 min using an Infinite M200 Pro plate reader (Tecan; excitation at 368 nm, emission at 467 nm), with one measurement every minute. For APC protease, absorbance was measured at 405 nm using the same plate reader for a period of 30 min with one reading every minute. Reactions were performed at 25 °C. Data were analyzed by Excel (version 2016).
# plasma kallikrein = biological target: T2, plasma kallikrein (Homo sapiens, UniProt P03952); test: Target specificity profiling: plasma kallikrein; conditions: replicates R1-R3
# T2 construct: 0.25 nM plasma kallikrein (Innovative Research); purchased Innovative Research
# T2 sequence (P03952 391-638 limits assumed): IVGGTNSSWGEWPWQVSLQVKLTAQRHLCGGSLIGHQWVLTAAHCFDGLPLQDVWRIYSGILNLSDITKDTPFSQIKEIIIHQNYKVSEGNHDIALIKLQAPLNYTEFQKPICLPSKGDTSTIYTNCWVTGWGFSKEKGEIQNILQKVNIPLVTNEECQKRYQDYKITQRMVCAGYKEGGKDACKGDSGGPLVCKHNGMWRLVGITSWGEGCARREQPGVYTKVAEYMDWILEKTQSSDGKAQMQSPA
# T2 sequence (P03952 20-390 partner limits assumed): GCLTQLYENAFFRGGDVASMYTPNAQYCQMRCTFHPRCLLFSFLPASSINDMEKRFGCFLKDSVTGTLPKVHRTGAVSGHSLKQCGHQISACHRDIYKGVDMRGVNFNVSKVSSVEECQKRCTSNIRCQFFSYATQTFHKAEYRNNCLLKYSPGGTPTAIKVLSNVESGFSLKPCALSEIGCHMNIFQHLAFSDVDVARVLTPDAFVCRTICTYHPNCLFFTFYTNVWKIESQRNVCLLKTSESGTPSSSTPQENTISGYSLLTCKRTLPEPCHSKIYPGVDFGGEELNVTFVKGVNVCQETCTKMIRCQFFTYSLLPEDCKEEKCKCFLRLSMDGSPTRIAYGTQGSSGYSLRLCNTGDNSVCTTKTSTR
# Procedure: as §1
# factor XIa = biological target: T3, factor XIa (Homo sapiens, UniProt P03951); test: Target specificity profiling: factor XIa; conditions: replicates R1-R3
# T3 construct: 1 nM factor XIa (Innovative Research); purchased Innovative Research
# T3 sequence (P03951 388-625 limits assumed): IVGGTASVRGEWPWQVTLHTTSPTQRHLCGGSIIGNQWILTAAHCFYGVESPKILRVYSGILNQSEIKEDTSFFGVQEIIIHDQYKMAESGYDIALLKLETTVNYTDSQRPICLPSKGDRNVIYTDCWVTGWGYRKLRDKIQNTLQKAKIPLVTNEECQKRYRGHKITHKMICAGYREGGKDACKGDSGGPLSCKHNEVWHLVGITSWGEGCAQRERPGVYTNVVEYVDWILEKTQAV
# T3 sequence (P03951 19-387 partner limits assumed): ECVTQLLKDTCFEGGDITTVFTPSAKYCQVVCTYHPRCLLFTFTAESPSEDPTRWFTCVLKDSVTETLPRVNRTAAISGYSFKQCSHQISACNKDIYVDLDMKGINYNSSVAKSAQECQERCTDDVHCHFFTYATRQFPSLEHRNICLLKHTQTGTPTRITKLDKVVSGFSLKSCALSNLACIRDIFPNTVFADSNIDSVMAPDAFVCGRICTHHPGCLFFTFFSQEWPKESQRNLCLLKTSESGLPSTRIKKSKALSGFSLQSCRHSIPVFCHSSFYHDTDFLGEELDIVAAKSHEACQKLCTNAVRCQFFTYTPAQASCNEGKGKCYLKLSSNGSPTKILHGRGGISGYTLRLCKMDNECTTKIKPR
# Procedure: as §1
# factor XIIa = biological target: T4, factor XIIa (Homo sapiens, UniProt P00748); test: Target specificity profiling: factor XIIa; conditions: replicates R1-R3
# T4 construct: 5.3 nM factor XIIa (Molecular Innovations); purchased Molecular Innovations
# T4 sequence (P00748 373-615 limits assumed, other chains not shown): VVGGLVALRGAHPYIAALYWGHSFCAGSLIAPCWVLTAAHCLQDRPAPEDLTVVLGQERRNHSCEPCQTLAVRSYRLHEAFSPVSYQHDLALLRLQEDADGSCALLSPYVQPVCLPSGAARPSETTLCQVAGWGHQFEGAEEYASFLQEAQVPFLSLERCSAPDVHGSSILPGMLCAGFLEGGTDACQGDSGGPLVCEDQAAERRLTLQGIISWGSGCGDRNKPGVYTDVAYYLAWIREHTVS
# Procedure: as §1
# human α-thrombin = human α-thrombin (Homo sapiens, UniProt P00734); test: Screen of 8,448-member cyclic peptide library against thrombin (crude reactions, 10 μM); conditions: 10 μM crude peptide, slopes normalized to DMSO; for Residual thrombin activity: Replica: repeated acylation and screen
# Procedure: The cyclic peptides were N-acylated with activated carboxylic acids as follows. Volumes of 25 nl of cyclic peptides and 25 nl of activated carboxylic acids were transferred in a combinatorial fashion to 384-well microplates (Greiner, 781076) using an Echo 650 acoustic liquid handler (Labcyte). Plates were centrifuged at 2,000g for 2 min and incubated at room temperature for 8 h. […] The reaction products were screened for thrombin inhibition as follows. […] Thrombin inhibition was determined by measuring the fluorescent gain over time. Fluorescence intensity was measured on a Tecan Infinite […] microplate reader for 30 min at 25 °C with a fluorescent readout every 3 min (excitation: 360 nm, emission: 465 nm). Protease inhibition was calculated by comparing the enzymatic activity to a control without cyclic peptide. page 48: Supplementary Tables Supplementary Table 1 […] Cyclic peptide high-throughput screen. Category Parameter Description Assay Type of assay In vitro Target Human α thrombin Primary measurement Proteolytic cleavage of fluorogenic substrate Key reagents […] (Bachem) Assay protocol Described in Materials section “Thrombin library synthesis and screening” Additional comments - […] Library composition Cyclic peptides Source Combinatorial synthesis. Described in Methods section “Thrombin library synthesis and screening” Additional comments - Screen Format 384 well microtiter plates (Greiner, 781076) Concentration(s) tested 10 µM Plate controls 20 wells DMSO, 4 wells human α thrombin inhibitor R-11-25-2 (DOI: 10.1039/d0sc01944e) Reagent/ compound dispensing system Echo 650 (Beckman Coulter), […]) Detection instrument and software Tecan Infinite […] microplate reader Assay validation/QC Z' score: 0.86 Correction factors - Normalization Percent fluorescent gain over time as compared to DMSO Additional comments - […] Additional assay(s) Resynthesis and retesting of 20 best hits in original assay Confirmation of hit purity and structure Compounds were resynthesized and verified analytically Additional comments - 47
compound,measurement,setting,value
O=C1C[C@H]2CCCN2C(=O)[C@H](Cc2ccccc2)NC(=O)[C@@H](NC(=O)c2ccc(Cl)cc2)CCC=CCCCCN1 (mixture of isomers) [peptide 46],"Residual protease activity, Thrombin (human)",thrombin; inhibitor 1.00E+03 nM,3.9 and 4.0 and 3.8
same,"Residual protease activity, Thrombin (human)",thrombin; inhibitor 1.25E+02 nM,27.0 and 25.5 (2×)
same,"Residual protease activity, Thrombin (human)",thrombin; inhibitor 1.56E+01 nM,75.5 and 73.3 and 73.1
same,"Residual protease activity, Thrombin (human)",thrombin; inhibitor 1.95E+00 nM,95.2 and 97.7 and 95.3
same,"Residual protease activity, Thrombin (human)",thrombin; inhibitor 2.50E+02 nM,15.1 and 14.2 and 14.6
same,"Residual protease activity, Thrombin (human)",thrombin; inhibitor 3.12E+01 nM,59.3 and 58.1 and 56.4
same,"Residual protease activity, Thrombin (human)",thrombin; inhibitor 3.91E+00 nM,91.5 and 93.3 and 91.3
same,"Residual protease activity, Thrombin (human)",thrombin; inhibitor 5.00E+02 nM,7.6 and 7.4 (2×)
same,"Residual protease activity, Thrombin (human)",thrombin; inhibitor 6.25E+01 nM,44.1 and 42.5 and 42.8
same,"Residual protease activity, Thrombin (human)",thrombin; inhibitor 7.81E+00 nM,89.2 and 86.5 and 77.1
same,"Residual protease activity, Thrombin (human)",thrombin; inhibitor 9.77E-01 nM,99.8 and 102.7 and 98.9
same,"Residual protease activity, Plasma kallikrein",plasma kallikrein; inhibitor 1.00E+04 nM,100.3 and 97.1 and 98.3
same,"Residual protease activity, Plasma kallikrein",plasma kallikrein; inhibitor 1.25E+03 nM,101.3 and 99.9 and 96.3
same,"Residual protease activity, Plasma kallikrein",plasma kallikrein; inhibitor 1.56E+02 nM,96.4 and 108.1 and 104.0
same,"Residual protease activity, Plasma kallikrein",plasma kallikrein; inhibitor 2.00E+04 nM,101.2 and 98.7 and 98.9
same,"Residual protease activity, Plasma kallikrein",plasma kallikrein; inhibitor 2.50E+03 nM,103.4 and 100.4 and 99.0
same,"Residual protease activity, Plasma kallikrein",plasma kallikrein; inhibitor 3.12E+02 nM,102.1 and 105.6 and 105.7
same,"Residual protease activity, Plasma kallikrein",plasma kallikrein; inhibitor 3.91E+01 nM,104.4 and 99.7 and 94.4
same,"Residual protease activity, Plasma kallikrein",plasma kallikrein; inhibitor 4.00E+04 nM,101.1 and 97.0 and 98.9
same,"Residual protease activity, Plasma kallikrein",plasma kallikrein; inhibitor 5.00E+03 nM,98.7 and 96.4 and 96.9
same,"Residual protease activity, Plasma kallikrein",plasma kallikrein; inhibitor 6.25E+02 nM,106.1 and 103.7 and 102.1
same,"Residual protease activity, Plasma kallikrein",plasma kallikrein; inhibitor 7.81E+01 nM,103.2 and 99.7 and 96.6
same,"Residual protease activity, Factor Xia",factor XIa; inhibitor 1.00E+04 nM,95.7 and 95.4 and 95.1
same,"Residual protease activity, Factor Xia",factor XIa; inhibitor 1.25E+03 nM,96.1 and 95.1 and 96.0
same,"Residual protease activity, Factor Xia",factor XIa; inhibitor 1.56E+02 nM,107.0 and 105.2 and 107.6
same,"Residual protease activity, Factor Xia",factor XIa; inhibitor 2.00E+04 nM,93.9 and 90.3 and 94.5
same,"Residual protease activity, Factor Xia",factor XIa; inhibitor 2.50E+03 nM,100.7 and 100.4 and 101.9
same,"Residual protease activity, Factor Xia",factor XIa; inhibitor 3.12E+02 nM,89.3 and 92.0 and 107.2
same,"Residual protease activity, Factor Xia",factor XIa; inhibitor 3.91E+01 nM,99.1 and 100.7 and 101.5
same,"Residual protease activity, Factor Xia",factor XIa; inhibitor 4.00E+04 nM,101.0 and 99.6 and 99.1
same,"Residual protease activity, Factor Xia",factor XIa; inhibitor 5.00E+03 nM,104.3 and 104.7 and 110.9
same,"Residual protease activity, Factor Xia",factor XIa; inhibitor 6.25E+02 nM,94.0 and 96.1 and 97.6
same,"Residual protease activity, Factor Xia",factor XIa; inhibitor 7.81E+01 nM,100.7 and 100.8 and 101.1
same,"Residual protease activity, Factor XIIa",factor XIIa; inhibitor 1.00E+04 nM,96.5 and 104.4 and 105.7
same,"Residual protease activity, Factor XIIa",factor XIIa; inhibitor 1.25E+03 nM,99.3 and 104.0 and 102.2
same,"Residual protease activity, Factor XIIa",factor XIIa; inhibitor 1.56E+02 nM,96.6 and 95.7 and 104.9
same,"Residual protease activity, Factor XIIa",factor XIIa; inhibitor 2.00E+04 nM,93.0 and 104.6 and 101.1
same,"Residual protease activity, Factor XIIa",factor XIIa; inhibitor 2.50E+03 nM,101.4 and 100.3 and 106.4
same,"Residual protease activity, Factor XIIa",factor XIIa; inhibitor 3.12E+02 nM,98.7 and 101.4 and 105.7
same,"Residual protease activity, Factor XIIa",factor XIIa; inhibitor 3.91E+01 nM,100.9 and 93.5 and 95.2
same,"Residual protease activity, Factor XIIa",factor XIIa; inhibitor 4.00E+04 nM,94.7 and 100.5 and 101.1
same,"Residual protease activity, Factor XIIa",factor XIIa; inhibitor 5.00E+03 nM,96.4 and 102.9 and 108.8
same,"Residual protease activity, Factor XIIa",factor XIIa; inhibitor 6.25E+02 nM,97.3 and 115.8 and 103.1
same,"Residual protease activity, Factor XIIa",factor XIIa; inhibitor 7.81E+01 nM,96.1 and 102.4 and 80.0
CN1CCC(=O)NCCSCCS(=O)(=O)CCSC[C@H](NC(=O)c2ccc(Cl)s2)C(=O)N[C@@H](Cc2ccccc2)C1=O [compound 14],Residual thrombin activity: Screen,human α-thrombin,29.3
same,Residual thrombin activity: Replica,human α-thrombin,33.0
O=C1C[C@H]2CCCN2C(=O)[C@H](Cc2ccccc2)NC(=O)[C@@H](NC(=O)c2ccc(Cl)s2)CSCCS(=O)(=O)CCSCCN1 [peptide 11],Residual thrombin activity: Screen,human α-thrombin,3.1
same,Residual thrombin activity: Replica,human α-thrombin,1.5

# From paper PMC11062899, “De novo development of small cyclic peptides that are orally bioavailable” (Nature Chemical Biology, 2023)
